Results as given in patent US20100234417A1, “THYROTROPIN RELEASING HORMONE RECEPTOR-OREXIN RECEPTOR HETERO-DIMERS/-OLIGOMERS” (DIMERIX BIOSCIENCE PTY LTD., priority 2006, published 2010).

Experiments:
[1] = system: thyrotropin releasing hormone receptor/orexin receptor hetero-dimer/-oligomer (TRHR with OxR1); assay: eBRET: TRHR/Rluc + barr2/Venus + OxR1 as IG3 in HEK293 cells; format: cell-based; details: OxR1, FIG. 6
Procedure: (§1) Briefly, referring to FIGS. 1 to 3, the IGs are provided in the form of the two receptors (TRHR and OxR). One of the two is attached to an RC (IG1-RC1, IG3). A second IG (IG2-RC2) is derived from a molecule that interacts with the receptors upon ligand binding (e.g. beta-arrestin, or a mutant thereof).
(§2) Cells were seeded in 6-well plates at a density of approximately 630,000 cells/well (HEK293FT) or approximately 150,000 cells/well (COS-7) and maintained at 37° C., 5% CO2 in Complete Media (DMEM containing 0.3 mg/ml glutamine, 100 IU/ml penicillin and 100 μg/ml streptomycin (Gibco)) supplemented with 10% fetal calf serum (FCS; Gibco). Transient transfections were carried out 24 h after seeding using GeneJuice (Novagen) or Metafectene (Biontex) according to manufacturer instructions. 24 h post-transfection, cells were washed with PBS, detached using 0.05% trypsin/0.53 mM EDTA, resuspended in HEPES-buffered phenol red free Complete Media containing 5% FCS and added to a poly-L-lysine-coated white microplate (Nunc). 48 h post-transfection, eBRET assays were carried out following pre-incubation of cells with EnduRen™ (Promega) at a final concentration of 30-40 μM, at 37° C., 5% CO2 for 2 h. For original BRET studies, the HEPES-buffered phenol red free Complete Media was replaced with PBS and coelenterazine h (Molecular Probes) added to a final concentration of 5 μM immediately prior to commencing the assay. […] Filtered light emissions were sequentially measured for 3-5 s in each of the ‘donor wavelength window’ (400-475 nm) and ‘acceptor wavelength window’ (>500 nm for EGFP or 520-540 nm for EYFP, Topaz (TYFP) or Venus). The BRET signal observed between interacting proteins is normalized by subtracting the background BRET ratio. […] In this case, data are shown as ‘fluorescence/luminescence’ being the ratio of light emission through the ‘acceptor wavelength window’ over the 400-475 nm emission for a particular cell sample. Unless otherwise stated, BRET signals were measured in 96-well microplates. […]

[2] = system: thyrotropin releasing hormone receptor/orexin receptor hetero-dimer/-oligomer (TRHR with OxR2); assay: eBRET/BRET detection of TRHR-OxR2 association: TRHR/Rluc + tagged beta-arrestin + OxR2 as IG3 in HEK293 cells; format: cell-based; details: OxR2, FIG. 6
Procedure: as §1
as §2, with “In the following examples, the first calculation will be used, unless the signal is described as the ‘ligand-induced BRET ratio’. […] In” for “In”
Cells not pretreated with antagonist were pretreated with PBS instead for the same amount of time. […]

[3] = system: animals studied (narcolepsy); details: cited from earlier work
[4] = 10^−6M SB-334867-A approx. 40 minutes before 10^−6M OxA
[5] = 10^−6M SB-334867-A approx. 40 minutes before 10^−6M TRH and OxA
[6] = dose- and time-dependent manner

SMILES	effect of antagonist pretreatment on OxA-induced eBRET signal [1, 4]	effect of antagonist pretreatment on TRH + OxA-induced eBRET signal [1, 5]	effect of antagonist pretreatment on OxA-induced eBRET signal [2, 4]	effect of antagonist pretreatment on TRH + OxA-induced eBRET signal [2, 5]	rapid eye movement (REM) sleep [3, 6]	slow wave sleep (SWS) [3, 6]	cataplexy ([3]; in most of the animals studied)
Cc1nc2ccc(NC(=O)Nc3ccnc4cccnc34)cc2o1.Cl [SB-334867-A, 1-(2-methylbenzoxazol-6-yl)-3-[1,5]naphthyridin-4-yl urea hydrochloride]	reduced	reduced	not affected	did not differ	–	–	–
CN1C(=O)C[C@@H](C(=O)N[C@@H](Cc2c[nH]cn2)C(=O)N2CCC[C@H]2C(N)=O)NC1=O.O.O.O.O [TA-0910]	–	–	–	–	significantly reduced	significantly reduced	completely suppressed
